# Measured values published in ChEMBL document CHEMBL1201862, “PubChem BioAssay data set” (2004).
# Activity calls are given as the source filed them.
# Assays:
# [1] = biological target: T1, Type-1 angiotensin II receptor (Homo sapiens, UniProt P30556); experiment: antagonism of angiotensin II type 1 receptor – cell-based, uHTS hits, selectivity assay for APJ receptor antagonist project, dose response (AID 463214); assay type: functional;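 note: antagonist potency against angiotensin II stimulated AT1 response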
# T1 sequence (P30556 whole entry): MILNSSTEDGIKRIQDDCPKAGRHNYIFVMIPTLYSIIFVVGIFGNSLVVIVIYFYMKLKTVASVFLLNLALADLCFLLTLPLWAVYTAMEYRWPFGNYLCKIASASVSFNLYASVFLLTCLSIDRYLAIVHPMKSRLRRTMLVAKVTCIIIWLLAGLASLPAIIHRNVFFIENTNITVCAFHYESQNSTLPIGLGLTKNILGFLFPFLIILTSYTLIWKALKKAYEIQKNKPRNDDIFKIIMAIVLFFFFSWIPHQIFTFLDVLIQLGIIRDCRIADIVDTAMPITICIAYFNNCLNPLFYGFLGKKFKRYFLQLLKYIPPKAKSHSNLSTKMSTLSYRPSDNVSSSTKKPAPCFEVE
# Beta-galactosidase = Beta-galactosidase (Escherichia coli, UniProt Q8VNN2); experiment: PubChem AID 485352; assay type: functional
# Sequence of Beta-galactosidase (Q8VNN2 whole entry): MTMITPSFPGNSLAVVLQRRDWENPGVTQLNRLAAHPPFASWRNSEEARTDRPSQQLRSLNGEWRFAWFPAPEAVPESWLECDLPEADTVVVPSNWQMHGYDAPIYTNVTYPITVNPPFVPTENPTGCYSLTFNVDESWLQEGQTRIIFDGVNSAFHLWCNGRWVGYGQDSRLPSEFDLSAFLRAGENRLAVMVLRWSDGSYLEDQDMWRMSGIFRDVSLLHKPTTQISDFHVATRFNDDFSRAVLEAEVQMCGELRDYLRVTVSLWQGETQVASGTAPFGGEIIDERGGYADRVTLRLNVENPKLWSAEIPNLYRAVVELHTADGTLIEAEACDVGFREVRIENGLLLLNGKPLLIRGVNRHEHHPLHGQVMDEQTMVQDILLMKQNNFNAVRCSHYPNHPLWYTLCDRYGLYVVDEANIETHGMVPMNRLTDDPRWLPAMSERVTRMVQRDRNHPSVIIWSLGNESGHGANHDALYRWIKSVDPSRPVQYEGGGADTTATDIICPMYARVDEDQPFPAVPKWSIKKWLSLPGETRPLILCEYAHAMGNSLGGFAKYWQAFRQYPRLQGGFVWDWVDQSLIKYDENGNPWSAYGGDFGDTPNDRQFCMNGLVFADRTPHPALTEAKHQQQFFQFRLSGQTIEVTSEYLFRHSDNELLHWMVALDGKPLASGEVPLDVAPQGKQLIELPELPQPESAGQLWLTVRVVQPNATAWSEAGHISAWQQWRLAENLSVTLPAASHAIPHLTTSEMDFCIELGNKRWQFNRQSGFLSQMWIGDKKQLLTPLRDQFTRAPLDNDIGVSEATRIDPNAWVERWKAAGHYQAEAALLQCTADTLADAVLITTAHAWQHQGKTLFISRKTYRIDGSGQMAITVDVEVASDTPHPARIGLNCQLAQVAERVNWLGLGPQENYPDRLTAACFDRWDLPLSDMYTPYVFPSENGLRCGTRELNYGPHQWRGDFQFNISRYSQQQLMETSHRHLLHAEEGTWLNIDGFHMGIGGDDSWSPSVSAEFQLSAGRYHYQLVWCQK
# [2] = biological target: Long-chain-fatty-acid--AMP ligase FadD28 (Mycobacterium tuberculosis, UniProt P9WQ59); experiment: Fluorescence polarization aasay to screen for inhibitors that compete for the binding of FadD28 to a bisubstrate Measured in Biochemical System Using Plate Reader - 2147-01_Inhibitor_Dose_CherryPick_Activity.; assay type: functional, Mycobacterium tuberculosis H37Rv
# Sequence of Long-chain-fatty-acid--AMP ligase FadD28 (P9WQ59 whole entry): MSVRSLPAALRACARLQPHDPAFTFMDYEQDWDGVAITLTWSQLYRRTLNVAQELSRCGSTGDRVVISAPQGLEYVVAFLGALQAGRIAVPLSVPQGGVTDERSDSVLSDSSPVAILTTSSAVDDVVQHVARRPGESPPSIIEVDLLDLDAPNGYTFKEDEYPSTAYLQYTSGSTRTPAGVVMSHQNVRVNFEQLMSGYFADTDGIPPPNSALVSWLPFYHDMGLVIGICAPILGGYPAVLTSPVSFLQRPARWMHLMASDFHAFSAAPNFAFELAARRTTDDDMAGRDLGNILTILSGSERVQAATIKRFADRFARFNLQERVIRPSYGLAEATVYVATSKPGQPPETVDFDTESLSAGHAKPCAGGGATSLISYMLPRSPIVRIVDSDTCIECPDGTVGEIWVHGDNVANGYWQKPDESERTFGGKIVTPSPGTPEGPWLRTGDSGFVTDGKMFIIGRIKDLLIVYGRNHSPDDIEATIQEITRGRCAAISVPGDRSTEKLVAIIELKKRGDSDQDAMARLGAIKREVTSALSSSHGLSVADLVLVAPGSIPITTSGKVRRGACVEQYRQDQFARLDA
# [3] = blockers of CRF-binding protein–CRF-R2 complex – cell-based, uHTS hits, 384-well, dose response (AID 651639); assay type: functional, Homo sapiens; conditions: read-out: IC50_Mean
# [4] = biological target: T2, Corticotropin-releasing factor receptor 2/Corticotropin-releasing factor-binding protein (Homo sapiens, UniProt P24387+Q13324); experiment: activators of CRF receptor 2 with binding protein – uHTS hits, confirmation (AID 602473); assay type: functional; conditions: read-out: EC50_Mean
# T2 sequence (Q13324 whole entry): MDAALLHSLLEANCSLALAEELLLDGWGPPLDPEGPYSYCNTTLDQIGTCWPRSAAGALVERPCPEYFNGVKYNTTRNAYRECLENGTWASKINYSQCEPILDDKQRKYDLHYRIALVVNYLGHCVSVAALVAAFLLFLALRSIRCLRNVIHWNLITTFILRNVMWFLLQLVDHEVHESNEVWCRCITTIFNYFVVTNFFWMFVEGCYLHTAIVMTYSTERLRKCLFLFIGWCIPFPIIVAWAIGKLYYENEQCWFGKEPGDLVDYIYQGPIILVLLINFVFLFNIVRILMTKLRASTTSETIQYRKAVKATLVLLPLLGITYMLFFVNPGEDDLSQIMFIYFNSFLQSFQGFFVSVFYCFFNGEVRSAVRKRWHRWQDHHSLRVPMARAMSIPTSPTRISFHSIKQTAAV
# T2 sequence (P24387 whole entry): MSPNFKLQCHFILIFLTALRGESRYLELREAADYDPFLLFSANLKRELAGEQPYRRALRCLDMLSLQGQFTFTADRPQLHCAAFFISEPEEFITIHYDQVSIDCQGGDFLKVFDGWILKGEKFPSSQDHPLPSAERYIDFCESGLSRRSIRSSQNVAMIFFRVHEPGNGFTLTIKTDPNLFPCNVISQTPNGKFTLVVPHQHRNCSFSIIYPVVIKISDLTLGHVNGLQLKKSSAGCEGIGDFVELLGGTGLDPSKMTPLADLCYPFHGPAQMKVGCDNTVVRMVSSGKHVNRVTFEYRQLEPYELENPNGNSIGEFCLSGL
# [5] = biological target: T2, Corticotropin-releasing factor receptor 2/Corticotropin-releasing factor-binding protein; experiment: Dose Response confirmation of uHTS hits for small molecule antagonists of the CRF-binding protein and CRF-R2 receptor complex.; assay type: functional; conditions: read-out: IC50_Mean
# [6] = biological target: T3, Tyrosyl-DNA phosphodiesterase 2 (Homo sapiens, UniProt O95551); experiment: potency against TDP2 phosphodiesterase activity – biochemical, epi absorbance, IC50, dose response (AID 743297)
# T3 sequence (O95551 whole entry): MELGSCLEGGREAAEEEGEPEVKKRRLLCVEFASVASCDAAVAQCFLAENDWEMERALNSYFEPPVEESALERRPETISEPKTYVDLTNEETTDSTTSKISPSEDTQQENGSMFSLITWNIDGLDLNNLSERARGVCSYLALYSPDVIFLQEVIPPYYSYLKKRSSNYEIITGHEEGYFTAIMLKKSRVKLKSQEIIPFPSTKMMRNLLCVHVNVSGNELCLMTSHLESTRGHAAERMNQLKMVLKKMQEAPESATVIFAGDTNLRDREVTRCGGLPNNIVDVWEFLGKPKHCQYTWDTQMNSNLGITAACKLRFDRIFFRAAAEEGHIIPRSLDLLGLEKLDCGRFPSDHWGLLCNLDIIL
# [7] = biological target: T4, Apoptotic protease-activating factor 1 (Homo sapiens, UniProt O14727); assay type: functional
# T4 sequence (O14727 whole entry): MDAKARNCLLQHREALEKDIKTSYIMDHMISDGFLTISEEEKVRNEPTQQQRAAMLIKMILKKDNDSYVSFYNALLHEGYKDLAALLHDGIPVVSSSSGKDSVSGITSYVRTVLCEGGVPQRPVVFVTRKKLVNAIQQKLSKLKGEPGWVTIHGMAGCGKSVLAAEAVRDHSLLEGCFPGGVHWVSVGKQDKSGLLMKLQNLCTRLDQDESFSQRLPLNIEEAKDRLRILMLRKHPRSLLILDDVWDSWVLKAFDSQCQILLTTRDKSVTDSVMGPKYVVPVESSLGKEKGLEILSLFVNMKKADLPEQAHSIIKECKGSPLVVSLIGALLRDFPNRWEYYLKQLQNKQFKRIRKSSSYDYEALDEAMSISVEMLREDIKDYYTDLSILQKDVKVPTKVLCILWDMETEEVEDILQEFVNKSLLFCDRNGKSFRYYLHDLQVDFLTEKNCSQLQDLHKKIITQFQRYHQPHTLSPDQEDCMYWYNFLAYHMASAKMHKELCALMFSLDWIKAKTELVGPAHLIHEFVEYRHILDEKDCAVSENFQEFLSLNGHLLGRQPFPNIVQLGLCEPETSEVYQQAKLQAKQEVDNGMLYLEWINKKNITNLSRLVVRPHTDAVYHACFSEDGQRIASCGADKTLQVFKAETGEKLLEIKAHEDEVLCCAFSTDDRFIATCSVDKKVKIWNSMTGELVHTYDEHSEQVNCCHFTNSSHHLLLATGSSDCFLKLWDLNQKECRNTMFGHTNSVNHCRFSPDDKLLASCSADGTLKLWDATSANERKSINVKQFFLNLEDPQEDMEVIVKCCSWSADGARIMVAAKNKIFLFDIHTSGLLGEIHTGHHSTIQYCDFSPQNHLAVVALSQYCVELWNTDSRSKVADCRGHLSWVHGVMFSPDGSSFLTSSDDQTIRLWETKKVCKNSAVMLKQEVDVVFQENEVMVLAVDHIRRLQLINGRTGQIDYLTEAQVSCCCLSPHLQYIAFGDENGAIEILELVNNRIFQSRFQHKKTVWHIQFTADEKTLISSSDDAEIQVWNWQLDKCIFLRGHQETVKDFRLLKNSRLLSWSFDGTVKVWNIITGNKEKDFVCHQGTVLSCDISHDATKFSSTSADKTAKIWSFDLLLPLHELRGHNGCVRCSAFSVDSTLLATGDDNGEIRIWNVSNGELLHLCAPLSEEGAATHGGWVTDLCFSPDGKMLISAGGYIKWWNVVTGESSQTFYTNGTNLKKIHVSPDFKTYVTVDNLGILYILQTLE
# [8] = biological target: Arf-GAP with SH3 domain, ANK repeat and PH domain-containing protein 1 (Homo sapiens, UniProt Q9ULH1); assay type: functional;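 note: biochemical fluorescence polarization dose–response screen measuring inhibition of ASAP1; ASAP1 GAP domain stimulating GTP hydrolysis by truncated human ARF1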
# Sequence of Arf-GAP with SH3 domain, ANK repeat and PH domain-containing protein 1 (Q9ULH1 whole entry, the tested form may be a part): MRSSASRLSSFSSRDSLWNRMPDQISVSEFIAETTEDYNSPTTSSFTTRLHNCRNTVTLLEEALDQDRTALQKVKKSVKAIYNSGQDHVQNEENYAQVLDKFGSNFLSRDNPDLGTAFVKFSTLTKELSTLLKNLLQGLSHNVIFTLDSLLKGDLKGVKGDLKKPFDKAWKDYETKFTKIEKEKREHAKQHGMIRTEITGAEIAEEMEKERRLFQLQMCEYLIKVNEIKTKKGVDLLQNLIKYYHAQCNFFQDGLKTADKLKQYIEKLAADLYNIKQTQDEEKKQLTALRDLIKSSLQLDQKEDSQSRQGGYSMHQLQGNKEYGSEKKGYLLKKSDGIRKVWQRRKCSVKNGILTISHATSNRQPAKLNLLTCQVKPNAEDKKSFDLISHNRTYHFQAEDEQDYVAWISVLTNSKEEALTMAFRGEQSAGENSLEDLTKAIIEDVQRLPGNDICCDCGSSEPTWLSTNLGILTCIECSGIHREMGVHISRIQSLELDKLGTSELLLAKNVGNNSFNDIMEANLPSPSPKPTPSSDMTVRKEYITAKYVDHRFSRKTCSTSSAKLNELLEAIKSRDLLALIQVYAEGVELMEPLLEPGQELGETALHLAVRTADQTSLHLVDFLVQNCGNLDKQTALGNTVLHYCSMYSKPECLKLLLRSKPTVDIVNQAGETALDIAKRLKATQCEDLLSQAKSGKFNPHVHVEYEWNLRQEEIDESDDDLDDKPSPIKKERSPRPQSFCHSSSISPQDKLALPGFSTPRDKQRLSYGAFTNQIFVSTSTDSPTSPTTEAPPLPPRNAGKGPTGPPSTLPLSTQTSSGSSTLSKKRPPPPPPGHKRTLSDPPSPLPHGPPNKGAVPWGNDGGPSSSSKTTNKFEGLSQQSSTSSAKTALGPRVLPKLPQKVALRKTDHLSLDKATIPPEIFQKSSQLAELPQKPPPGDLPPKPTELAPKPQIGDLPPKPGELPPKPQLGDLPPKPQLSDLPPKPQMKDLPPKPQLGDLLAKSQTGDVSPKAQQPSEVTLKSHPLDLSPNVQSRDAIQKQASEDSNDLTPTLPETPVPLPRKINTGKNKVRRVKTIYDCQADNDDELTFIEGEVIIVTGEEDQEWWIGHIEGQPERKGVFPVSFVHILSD
# [9] = biological target: T5, Replicative DNA helicase DnaB (Mycobacterium tuberculosis, UniProt P9WMR3); experiment: DnaB intein splicing inhibitors, dose response, biochemical, cell-free fluorescence (AID 449749); assay type: functional
# T5 sequence (P9WMR3 whole entry): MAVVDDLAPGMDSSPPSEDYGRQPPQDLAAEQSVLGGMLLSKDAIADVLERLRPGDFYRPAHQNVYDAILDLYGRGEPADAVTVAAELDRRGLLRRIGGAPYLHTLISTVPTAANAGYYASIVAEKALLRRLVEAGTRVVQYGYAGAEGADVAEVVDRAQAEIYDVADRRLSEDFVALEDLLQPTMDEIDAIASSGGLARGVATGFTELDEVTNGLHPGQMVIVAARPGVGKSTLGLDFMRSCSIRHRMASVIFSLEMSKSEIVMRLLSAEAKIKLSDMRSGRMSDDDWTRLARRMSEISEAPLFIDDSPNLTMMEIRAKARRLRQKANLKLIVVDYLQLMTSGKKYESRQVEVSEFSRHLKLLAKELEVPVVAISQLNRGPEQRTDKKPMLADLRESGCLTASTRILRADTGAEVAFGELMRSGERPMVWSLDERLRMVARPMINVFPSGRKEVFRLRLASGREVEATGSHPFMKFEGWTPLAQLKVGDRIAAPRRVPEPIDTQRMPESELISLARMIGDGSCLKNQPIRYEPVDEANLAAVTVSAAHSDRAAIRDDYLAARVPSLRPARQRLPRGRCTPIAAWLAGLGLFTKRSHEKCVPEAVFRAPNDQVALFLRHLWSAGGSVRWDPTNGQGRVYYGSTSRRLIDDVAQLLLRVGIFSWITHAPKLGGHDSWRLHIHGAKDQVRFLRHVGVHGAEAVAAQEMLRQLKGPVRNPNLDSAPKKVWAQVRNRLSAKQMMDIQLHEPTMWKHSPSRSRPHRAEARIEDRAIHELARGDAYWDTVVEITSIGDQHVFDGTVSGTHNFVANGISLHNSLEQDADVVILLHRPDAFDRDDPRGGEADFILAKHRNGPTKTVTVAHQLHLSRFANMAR
# Protein RecA = biological target: T6, Protein RecA (Mycobacterium tuberculosis, UniProt P9WHJ3); experiment: Fluorescence Cell-Free Homogeneous Dose Retest to Identify Inhibitors of RecA-Intein Splicing Activity. [Related pubchem assays (depositor defined):AID2097, AID2223, AID489010, AID492950]; assay type: functional
# T6 sequence (P9WHJ3 whole entry): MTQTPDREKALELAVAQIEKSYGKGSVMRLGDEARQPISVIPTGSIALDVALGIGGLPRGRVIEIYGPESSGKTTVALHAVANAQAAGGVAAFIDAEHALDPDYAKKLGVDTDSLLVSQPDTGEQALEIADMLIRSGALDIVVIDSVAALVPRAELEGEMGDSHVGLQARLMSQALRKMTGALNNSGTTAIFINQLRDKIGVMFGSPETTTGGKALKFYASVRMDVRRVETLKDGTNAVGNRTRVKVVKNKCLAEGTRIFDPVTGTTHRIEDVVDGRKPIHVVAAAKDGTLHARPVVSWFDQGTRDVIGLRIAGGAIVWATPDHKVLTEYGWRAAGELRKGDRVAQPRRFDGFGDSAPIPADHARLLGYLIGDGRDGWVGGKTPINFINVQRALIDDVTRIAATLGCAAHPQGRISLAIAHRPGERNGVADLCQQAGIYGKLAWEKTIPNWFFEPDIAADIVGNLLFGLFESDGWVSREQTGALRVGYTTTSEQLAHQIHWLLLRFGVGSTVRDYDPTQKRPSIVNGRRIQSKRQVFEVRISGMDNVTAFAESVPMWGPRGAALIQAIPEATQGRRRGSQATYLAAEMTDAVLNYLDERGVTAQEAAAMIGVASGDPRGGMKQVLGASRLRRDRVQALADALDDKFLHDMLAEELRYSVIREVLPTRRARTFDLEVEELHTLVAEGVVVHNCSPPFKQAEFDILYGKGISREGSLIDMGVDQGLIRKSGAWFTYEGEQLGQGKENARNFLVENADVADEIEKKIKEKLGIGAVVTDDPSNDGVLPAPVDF
# [10] = biological target: T7, Methionyl-tRNA synthetase, putative (Trypanosoma brucei brucei, UniProt Q38C91); assay type: functional, Trypanosoma brucei brucei strain 927/4 GUTat10.1
# T7 sequence (Q38C91 whole entry): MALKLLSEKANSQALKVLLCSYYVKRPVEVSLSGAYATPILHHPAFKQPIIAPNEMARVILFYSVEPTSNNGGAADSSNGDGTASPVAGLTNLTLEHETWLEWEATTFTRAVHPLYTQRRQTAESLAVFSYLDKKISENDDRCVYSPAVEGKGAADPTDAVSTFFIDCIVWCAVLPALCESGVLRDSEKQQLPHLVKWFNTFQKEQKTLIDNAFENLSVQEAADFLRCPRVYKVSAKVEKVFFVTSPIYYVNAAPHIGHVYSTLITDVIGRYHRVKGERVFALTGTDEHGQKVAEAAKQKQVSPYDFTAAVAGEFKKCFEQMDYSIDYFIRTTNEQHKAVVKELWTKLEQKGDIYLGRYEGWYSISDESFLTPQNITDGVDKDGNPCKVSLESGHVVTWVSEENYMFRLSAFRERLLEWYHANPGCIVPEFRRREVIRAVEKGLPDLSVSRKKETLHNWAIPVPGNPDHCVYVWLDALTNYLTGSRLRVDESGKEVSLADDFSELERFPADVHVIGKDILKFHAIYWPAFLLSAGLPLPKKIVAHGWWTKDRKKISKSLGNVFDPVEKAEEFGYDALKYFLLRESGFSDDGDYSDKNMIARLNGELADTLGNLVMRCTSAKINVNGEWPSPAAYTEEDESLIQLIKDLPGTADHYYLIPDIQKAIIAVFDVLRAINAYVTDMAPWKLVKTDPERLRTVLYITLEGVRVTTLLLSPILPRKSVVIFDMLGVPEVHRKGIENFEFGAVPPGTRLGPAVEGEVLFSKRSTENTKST
# [11] = Counterscreen for inhibitors of Trypanosoma brucei methionyl tRNA synthetase (MetRS): Luminescence-based cell-based high throughput dose response assay to identify compounds that are cytotoxic to Jurkat human T lymphocyte cells.; assay type: functional
# [12] = biological target: T7, Methionyl-tRNA synthetase, putative; assay type: functional, Trypanosoma brucei brucei strain 927/4 GUTat10.1; remark: listed apart in the source
# [13] = biological target: T8, Probable nicotinate-nucleotide adenylyltransferase (Staphylococcus aureus (strain N315), UniProt P65502); assay type: functional, Staphylococcus aureus subsp. aureus N315; conditions: read-out: IC50_Mean;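 for IC50 Mean: confirmatory dose-response retesting of NadD inhibitor hits first found in an ultra-high-throughput screen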
# T8 sequence (P65502 whole entry): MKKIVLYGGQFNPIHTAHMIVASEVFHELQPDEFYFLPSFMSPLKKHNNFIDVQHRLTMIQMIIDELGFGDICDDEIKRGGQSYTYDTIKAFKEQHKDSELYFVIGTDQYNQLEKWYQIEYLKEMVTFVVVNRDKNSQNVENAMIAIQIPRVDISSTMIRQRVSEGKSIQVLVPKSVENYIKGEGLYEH
# [14] = biological target: T8, Probable nicotinate-nucleotide adenylyltransferase; assay type: functional, Staphylococcus aureus subsp. aureus N315
# [15] = mouse fibroblast viability loss – cell-based, cherry-pick samples, set 2, cytotoxicity control for T. cruzi growth inhibitor project, dose response (AID 651817); assay type: functional; conditions: NIH3T3
smiles,measurement,setting,value
Cc1ccc(NC(=S)NNC(=O)c2ccc(N3CCOCC3)c([N+](=O)[O-])c2)cc1Cl,IC50,[1],> 40 µM (not active)
same,EC50,Beta-galactosidase,> 40 µM (inactive)
same,AC50,[2],30.9 µM (active)
CC(=O)NC(Cc1ccc(C)cc1)C(=O)NC1CCN(c2ncccc2[N+](=O)[O-])CC1 (configuration not stated),IC50,[3],5.07 µM (active)
same,EC50,[4],> 53 µM (inactive)
same,IC50,[5],2.09 µM (active)
CC(=O)c1cccc(-c2ccc3c(=O)[nH]c(Nc4ccccc4)cc3c2)c1,IC50,[6],25.9 µM (inactive)
same,IC50,[7],3.02 µM (active)
same,IC50,[8],165 µM (inactive)
same,AC50,[9],> 380 µM (inactive)
same,EC50,Protein RecA,2.14 µM (active)
CSC[C@H]1CN(Cc2cccnc2)C(=O)[C@@H]1CC(=O)Nc1ccc(Br)cc1,IC50,[10],7.58 µM (active)
same,IC50,[11],83.3 µM (inactive)
same,IC50,[12],3.02 µM (active)
Nc1[nH]c(C(=O)c2ccccc2)c(-c2ccccc2Br)c1C(=O)NCc1ccc(-c2ccccc2)cc1,IC50,[13],65.9 µM (active)
same,IC50,[14],26.5 µM (active)
Cc1ccc(S(=O)(=O)N(C)C[C@@H]2Oc3c(NC(=O)c4nc5ccccc5s4)cccc3C(=O)N([C@@H](C)CO)C[C@@H]2C)cc1,AC50,[15],39 µM (inactive)
